Data reported in patent US20250090622A1, “ANGIOTENSIN COMPOSITIONS AND METHODS RELATED THERETO” (LA JOLLA PHARMA, LLC, priority 2017, published 2025).
Read-outs that look alike come from different tables or passages of the source.

Assays:
blood pressure [1] = settings: intravenous dosing, dogs; cited from earlier work
blood pressure [2] = settings: intravenous dosing, rats; cited from earlier work
[3] = test system: sepsis-induced hypotension; settings: porcine fecal peritonitis septic shock; hemodynamic effects similar to norepinephrine; cited from earlier work
[4] = test system: hypotension in distributive shock; assay: clinical study of angiotensin II in treating hypotension in distributive shock; type: in vivo, human; settings: 95% CI 4.76 to 13.3; P<0.001
Procedure: Vials containing 2 milliliters of 2.5 mg/mL (mg) angiotensin II in 0.9% saline and 25 mg/mL mannitol were evaluated in a clinical study of angiotensin II in treating hypotension in distributive shock (Khanna et al., N Engl J Med 2017; 377:419-430). Patients were currently on other vasopressors but still hypotensive (mean arterial pressure (MAP)[…]65 mmHg). Administration of angiotensin II was begun at a rate of 20 ng/kg/min, and titrated up or down to achieve and maintain an increased MAP of 10 mmHg above baseline or at least 75 mmHg. For the first 3 hours of treatment, the other vasopressors were held constant and the maximum dose allowed of angiotensin II was 200 ng/kg/min. At 3 hours and 15 minutes, all vasopressors could be titrated to maintain a MAP between 65-75 mmHg and an angiotensin II rate of 1.25-40 ng/kg/min. Angiotensin II could be administered for up to 7 days in this study. In this study, about 1 vial of drug (5 mg) was sufficient to treat each patient for a 24-hour period, and patients were on the treatment for an average of 2 days. Most patients required at least 1 mg of drug per day.
A total of 344 patients were assigned to one of the two regimens; 321 received a study intervention (163 received angiotensin II, and 158 received placebo) and were included in the analysis.

blood pressure [5] = settings: intravenous dosing, rabbits; cited from earlier work

CC[C@H](C)[C@H](NC(=O)[C@H](Cc1ccc(O)cc1)NC(=O)[C@@H](NC(=O)[C@H](CCCNC(=N)N)NC(=O)[C@@H](N)CC(=O)O)C(C)C)C(=O)N[C@@H](Cc1c[nH]cn1)C(=O)N1CCC[C@H]1C(=O)N[C@@H](Cc1ccccc1)C(=O)O [angiotensin II, H-Asp-Arg-Val-Try-Ile-His-Pro-Phe-OH]
effect on blood pressure (blood pressure [1]): increase in blood pressure
effect on blood pressure (blood pressure [2]): increase in blood pressure
effect on sepsis-induced hypotension [3]: reversed sepsis-induced hypotension
odds ratio for primary end point, angiotensin II vs placebo [4]: 7.95
effect on blood pressure (blood pressure [5]): increase in blood pressure
